The values below are quoted from earlier work in patent US20050009744A1, “Treatment of congestive heart failure” (priority 2001, published 2005).

The conditions of the data set: Lysko et al, J Cardiovasc Pharmacol 2000.

Regarding `COc1ccccc1OCCNCC(O)COc1cccc2[nH]c3ccccc3c12` (stereo not shown) [Carvedilol, carvedilol], the antioxidant activity entry is “far greater antioxidant activity than e.g. metoprolol”.
